Some results are limits rather than exact numbers.

In one assay the target is T1, Son of Sevenless (SOS) (Homo sapiens, UniProt Q07889).
T1 sequence (Q07889 564-1049 limits assumed): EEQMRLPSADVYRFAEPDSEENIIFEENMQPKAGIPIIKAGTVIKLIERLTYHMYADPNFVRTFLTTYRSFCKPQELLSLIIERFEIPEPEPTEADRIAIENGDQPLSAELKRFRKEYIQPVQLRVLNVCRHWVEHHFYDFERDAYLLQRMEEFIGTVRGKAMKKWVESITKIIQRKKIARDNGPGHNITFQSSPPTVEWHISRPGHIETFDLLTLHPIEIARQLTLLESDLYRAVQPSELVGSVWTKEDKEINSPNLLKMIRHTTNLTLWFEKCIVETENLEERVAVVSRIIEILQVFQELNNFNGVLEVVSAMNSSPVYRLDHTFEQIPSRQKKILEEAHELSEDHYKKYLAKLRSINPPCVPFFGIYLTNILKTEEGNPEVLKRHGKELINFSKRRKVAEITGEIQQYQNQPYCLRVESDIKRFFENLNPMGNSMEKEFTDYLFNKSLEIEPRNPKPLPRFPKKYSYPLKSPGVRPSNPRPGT
The assay can be described thus: Binding to SOS, fluorescence polarization anisotropy (FPA) displacement of FITC-conjugated probe. The following applies: binding affinity calculated from IC50 of FITC-probe displacement, read-out: Binding affinities (binding affinity to SOS). Summed up:
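FITC-labelled probe incubated with SOS in buffer; displacement by test compound across a dose range read as fluorescence anisotropy change. IC50 from four-parameter variable-slope fit, binding affinity calculated from IC50.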

The target of assay [1] is T2, SOS-mediated nucleotide exchange on Ras (Homo sapiens, UniProt Q07889).
T2 sequence (Q07889 1-1333): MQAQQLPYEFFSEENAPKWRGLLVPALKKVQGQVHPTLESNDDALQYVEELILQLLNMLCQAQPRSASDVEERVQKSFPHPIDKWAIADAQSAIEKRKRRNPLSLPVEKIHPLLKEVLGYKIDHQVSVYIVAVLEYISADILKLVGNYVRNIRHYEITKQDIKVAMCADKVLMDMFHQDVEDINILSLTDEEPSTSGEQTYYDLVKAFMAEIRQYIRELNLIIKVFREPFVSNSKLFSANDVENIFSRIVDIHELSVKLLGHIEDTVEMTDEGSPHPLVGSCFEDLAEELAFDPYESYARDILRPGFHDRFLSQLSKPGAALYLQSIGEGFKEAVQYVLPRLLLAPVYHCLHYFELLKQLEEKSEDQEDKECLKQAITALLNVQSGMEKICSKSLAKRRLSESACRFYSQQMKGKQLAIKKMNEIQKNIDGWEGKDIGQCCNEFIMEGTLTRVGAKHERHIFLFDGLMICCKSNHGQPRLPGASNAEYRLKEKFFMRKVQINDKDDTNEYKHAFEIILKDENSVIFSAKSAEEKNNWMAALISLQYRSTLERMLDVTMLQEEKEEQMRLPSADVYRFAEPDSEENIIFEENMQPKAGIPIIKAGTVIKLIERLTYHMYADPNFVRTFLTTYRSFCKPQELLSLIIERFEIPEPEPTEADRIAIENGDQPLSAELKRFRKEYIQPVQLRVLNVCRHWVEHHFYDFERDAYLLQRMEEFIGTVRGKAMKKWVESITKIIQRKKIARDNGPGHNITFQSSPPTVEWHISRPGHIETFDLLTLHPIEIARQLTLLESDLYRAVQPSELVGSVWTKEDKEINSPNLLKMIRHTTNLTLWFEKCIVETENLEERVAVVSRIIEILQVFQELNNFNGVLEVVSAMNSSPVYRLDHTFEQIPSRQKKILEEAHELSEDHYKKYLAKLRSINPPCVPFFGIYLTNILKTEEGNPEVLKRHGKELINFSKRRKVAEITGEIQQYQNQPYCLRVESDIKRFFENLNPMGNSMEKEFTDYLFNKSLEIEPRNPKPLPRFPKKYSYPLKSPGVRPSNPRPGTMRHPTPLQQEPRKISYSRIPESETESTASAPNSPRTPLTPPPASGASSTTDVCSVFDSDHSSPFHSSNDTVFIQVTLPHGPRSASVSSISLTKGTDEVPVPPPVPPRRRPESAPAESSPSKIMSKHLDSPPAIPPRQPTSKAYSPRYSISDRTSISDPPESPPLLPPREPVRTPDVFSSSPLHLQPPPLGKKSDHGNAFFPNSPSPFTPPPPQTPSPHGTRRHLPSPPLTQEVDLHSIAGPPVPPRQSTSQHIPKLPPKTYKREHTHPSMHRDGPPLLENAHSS
The assay can be described thus: SOS-mediated nucleotide exchange on Ras (BODIPY-GDP fluorescence). Format: biochemical. As to conditions: Ras loaded with BODIPY-GDP, GTP and SOS added; EC50 from derived exchange rates. Summed up:
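Compound, then GTP and SOS, were added to buffered Ras preloaded with BODIPY-GDP, and the fluorescence change from labeled GDP being exchanged for GTP was followed over time. Rates came from single-exponential fits, and EC50 from a four-parameter fit of mean rate against compound concentration.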

A word on the EC50: it is the concentration needed to bring the measured effect to its halfway point. Read a low EC50 as a more potent agent. `C[C@@H](Nc1nc(Nc2ccc(F)c(Cl)c2)nc2c(NCCCN)cccc12)C1CC1` [Example 66, (R)—N^8-(3-aminopropyl)-N^2-(3-chloro-4-fluorophenyl)-N^4-(1-cyclopropylethyl)quinazoline-2,4,8-triamine]: the Ki on Son of Sevenless (SOS) was greater than 5 µM. The EC50 in assay [1] lay within 5 to 30 µM.
On the same counts, the results for `C[C@@H](Nc1nc(NCc2cccc(Cl)c2F)nc2c(CN)cccc12)c1cccs1` [Example 97, (R)-8-(aminomethyl)-N^2-(3-chloro-2-fluorobenzyl)-N^4-(1-(thiophen-2-yl)ethyl)quinazoline-2,4-diamine] are greater than 5 µM and 5 to 30 µM.
On the same counts, the results for `CC[C@@H](Nc1nc(Nc2cc(F)cc(F)c2)nc2ccccc12)C1CC1` [Example 35, (R)—N^4-(1-cyclopropylpropyl)-N^2-(3,5-difluorophenyl)quinazoline-2,4-diamine] are greater than 5 µM and 1 to 5 µM.
Turning to `C[C@@H](Nc1nc(Nc2ccc(F)c(Cl)c2)nc2c(C3=CCNCC3)cccc12)C1CC1` [Example 62, (R)—N^2-(3-chloro-4-fluorophenyl)-N^4-(1-cyclopropylethyl)-8-(1,2,3,6-tetrahydropyridin-4-yl)quinazoline-2,4-diamine], the Ki at Son of Sevenless (SOS) was 1 to 5 µM. In assay [1], this compound returned an EC50 of less than 1 µM.
The matching figures for `C[C@@H](Nc1nc(NCC2CCCCCC2)nc2c(C3=CCNCC3)cccc12)C1CC1` [Example 103, (R)—N^2-(cycloheptylmethyl)-N^4-(1-cyclopropylethyl)-8-(1,2,3,6-tetrahydropyridin-4-yl)quinazoline-2,4-diamine]: greater than 5 µM and 5 to 30 µM.
As to `C[C@@H](Nc1nc(NCC2CCCCC2)nc2c(CN)cccc12)C(C)(C)C` [Example 86, (R)-8-(aminomethyl)-N^2-(cyclohexylmethyl)-N^4-(3,3-dimethylbutan-2-yl)quinazoline-2,4-diamine], the Ki at Son of Sevenless (SOS) is greater than 5 µM. The EC50 in assay [1] lay within 5 to 30 µM.
On the same counts, the results for `CCOCCc1cccc2c(N[C@H](C)C3CC3)nc(Nc3ccc(F)c(Cl)c3)nc12` [Example 123, (R)—N^2-(3-chloro-4-fluorophenyl)-N^4-(1-cyclopropylethyl)-8-(2-ethoxyethyl)quinazoline-2,4-diamine] are greater than 5 µM and greater than 30 µM.
The matching figures for `C[C@@H](Nc1nc(NCC2CCCCC2)nc2c(C3=CCN(C)CC3)cccc12)C1CC1` [Example 121, (R)—N^2-(cyclohexylmethyl)-N^4-(1-cyclopropylethyl)-8-(1-methyl-1,2,3,6-tetrahydropyridin-4-yl)quinazoline-2,4-diamine]: 1 to 5 µM and 1 to 5 µM.
The matching figures for `Cc1cc(CNc2nc(N[C@H](C)C3CC3)c3ccccc3n2)ccc1F` [Example 24, (R)—N^4-(1-cyclopropylethyl)-N^2-(4-fluoro-3-methylbenzyl)quinazoline-2,4-diamine]: greater than 5 µM and 1 to 5 µM.
For `C[C@@H](Nc1nc(NCCc2c[nH]cn2)nc2c(C3=CCNCC3)cccc12)C1CC1` [Example 63, (R)—N^2-(2-(1H-imidazol-4-yl)ethyl)-N^4-(1-cyclopropylethyl)-8-(1,2,3,6-tetrahydropyridin-4-yl)quinazoline-2,4-diamine], the Ki at Son of Sevenless (SOS) was greater than 5 µM. In assay [1], the EC50 was greater than 30 µM.
On the same counts, the results for `C[C@@H](Nc1nc(NCc2cccc(Cl)c2F)nc2c(CCN)cccc12)c1cccs1` [Example 94, (R)-8-(2-aminoethyl)-N^2-(3-chloro-2-fluorobenzyl)-N^4-(1-(thiophen-2-yl)ethyl)quinazoline-2,4-diamine] are 1 to 5 µM and 1 to 5 µM.
On the same counts, the results for `C[C@@H](Nc1nc(Nc2ccc(F)c(Cl)c2)nc2c(CC3CC(N)C3)cccc12)C1CC1` (stereo partly drawn) [Example 114, (R)-8-((3-aminocyclobutyl)methyl)-N^2-(3-chloro-4-fluorophenyl)-N^4-(1-cyclopropylethyl)quinazoline-2,4-diamine] are 1 to 5 µM and 1 to 5 µM.
The matching figures for `C[C@@H](Nc1nc(Nc2ccc(F)c(Cl)c2)nc2c(N3CCNCC3)cccc12)C1CC1` [Example 52, (R)—N^2-(3-chloro-4-fluorophenyl)-N^4-(1-cyclopropylethyl)-8-(piperazin-1-yl)quinazoline-2,4-diamine]: 1 to 5 µM and 1 to 5 µM.
`C[C@@H](Nc1nc(Nc2ccc(F)c(Cl)c2)nc2c(CN)cccc12)c1cccs1` [Example 132, (R)-8-(aminomethyl)-N^2-(3-chloro-4-fluorophenyl)-N^4-(1-(thiophen-2-yl)ethyl)quinazoline-2,4-diamine]: at Son of Sevenless (SOS), the Ki is 1 to 5 µM. The same compound returned an EC50 in assay [1] of 5 to 30 µM.
The matching figures for `COc1cccc(CNc2nc(N[C@H](C)C3CC3)c3ccccc3n2)c1` [Example 27, (R)—N^4-(1-cyclopropylethyl)-N^2-(3-methoxybenzyl)quinazoline-2,4-diamine]: greater than 5 µM and 5 to 30 µM.
On the same counts, the results for `C[C@@H](Nc1nc(Nc2cc(F)cc(F)c2)nc2ccccc12)c1cccs1` [Example 38, (R)—N^2-(3,5-difluorophenyl)-N^4-(1-(thiophen-2-yl)ethyl)quinazoline-2,4-diamine] are greater than 5 µM and 1 to 5 µM.
The matching figures for `C=CC[C@@H](Nc1nc(Nc2ccc(F)c(Cl)c2)nc2c(C3=CCNCC3)cccc12)C1CC1` [Example 115, (R)—N^2-(3-chloro-4-fluorophenyl)-N^4-(1-cyclopropylbut-3-en-1-yl)-8-(1,2,3,6-tetrahydropyridin-4-yl)quinazoline-2,4-diamine]: 1 to 5 µM and 1 to 5 µM.
As for `C[C@@H](Nc1nc(Nc2ccc(F)c(Cl)c2)nc2c(CC3CNC3)cccc12)C1CC1` [Example 113, (R)-8-(azetidin-3-ylmethyl)-N^2-(3-chloro-4-fluorophenyl)-N^4-(1-cyclopropylethyl)quinazoline-2,4-diamine], the Ki on Son of Sevenless (SOS) was 1 to 5 µM. Moreover, the EC50 in assay [1] was 1 to 5 µM.
`C[C@@H](Nc1nc(Nc2ccc(F)c(Cl)c2)nc2c(NCC3CNC3)cccc12)C1CC1` [Example 111, (R)—N^8-(azetidin-3-ylmethyl)-N^2-(3-chloro-4-fluorophenyl)-N^4-(1-cyclopropylethyl)quinazoline-2,4,8-triamine]: the Ki at Son of Sevenless (SOS) was greater than 5 µM. This compound gave a half-maximal effective concentration (EC50) in assay [1] of 5 to 30 µM.
The matching figures for `C[C@@H](Nc1nc(NCc2cccc(Cl)c2F)nc2c(C3=CCNCC3)cccc12)c1cccs1` [Example 133, (R)—N^2-(3-chloro-2-fluorobenzyl)-8-(1,2,3,6-tetrahydropyridin-4-yl)-N^4-(1-(thiophen-2-yl)ethyl)quinazoline-2,4-diamine]: 1 to 5 µM and 5 to 30 µM.

Values taken from US11318137B2, “Quinazoline compounds as modulators of Ras signaling” (VANDERBILT UNIVERSITY, priority 2017, dated 2022).
